Patent US8227422B2, “Peptides and compounds that bind to a receptor” (Glaxosmithkline LLC, priority 1996, dated 2012)
Like-named read-outs stand apart in the source and are kept apart here. Where a SMILES comes first, the peptide text is derived from it.

Experiments:
[1] = biological target: T1, human TPO-R (transfected Ba/F3 cells) (Homo sapiens, UniProt P40238); test: Thrombopoietin dependent cell proliferation assay (MTT), TPO-R transfected Ba/F3 cells; format: cell-based
T1 construct: Murine IL-3 dependent Ba/F3 cells were transfected with full length human TPO-R; expressed in transfected cells; host or cells: murine Ba/F3 cells
T1 sequence (P40238 26-635): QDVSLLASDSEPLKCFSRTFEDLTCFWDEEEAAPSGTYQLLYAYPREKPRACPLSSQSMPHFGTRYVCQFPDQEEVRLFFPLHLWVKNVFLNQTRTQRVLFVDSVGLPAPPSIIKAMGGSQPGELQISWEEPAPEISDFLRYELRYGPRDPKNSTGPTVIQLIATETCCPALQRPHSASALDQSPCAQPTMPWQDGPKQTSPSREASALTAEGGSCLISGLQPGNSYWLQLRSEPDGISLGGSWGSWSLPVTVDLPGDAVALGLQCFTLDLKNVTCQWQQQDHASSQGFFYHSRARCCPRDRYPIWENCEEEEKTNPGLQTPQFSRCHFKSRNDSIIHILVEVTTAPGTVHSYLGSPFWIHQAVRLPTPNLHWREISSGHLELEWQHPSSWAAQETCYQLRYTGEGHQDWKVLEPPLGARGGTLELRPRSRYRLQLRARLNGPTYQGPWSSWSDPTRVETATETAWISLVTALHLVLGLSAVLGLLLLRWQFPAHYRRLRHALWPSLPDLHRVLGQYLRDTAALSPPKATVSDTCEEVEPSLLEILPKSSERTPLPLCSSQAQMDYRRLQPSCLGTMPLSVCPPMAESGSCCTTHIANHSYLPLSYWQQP

TPO receptor = biological target: T2, TPO receptor (Homo sapiens, UniProt P40238); test: Microphysiometer assay: rate of acidification of extracellular medium on TPO receptor stimulation; format: cell-based
T2 sequence (P40238 26-635): T1 sequence (P40238 26-635)
Method: In this example cyclized compounds were subjected to three assays. […] Finally, a microphysiometer (Molecular Devices Corp.) assay was performed. […] The ranges for EC50 are symbolically indicated as for IC50 described above.

TPO-R = biological target: T3, TPO-R (Homo sapiens, UniProt P40238); test: Competition binding assay (equilibrium binding ELISA, MBP-TPO156 tracer) on immobilized TPO-R; settings: read-out: IC50
T3 construct: made in house
T3 sequence (P40238 26-491 limits assumed): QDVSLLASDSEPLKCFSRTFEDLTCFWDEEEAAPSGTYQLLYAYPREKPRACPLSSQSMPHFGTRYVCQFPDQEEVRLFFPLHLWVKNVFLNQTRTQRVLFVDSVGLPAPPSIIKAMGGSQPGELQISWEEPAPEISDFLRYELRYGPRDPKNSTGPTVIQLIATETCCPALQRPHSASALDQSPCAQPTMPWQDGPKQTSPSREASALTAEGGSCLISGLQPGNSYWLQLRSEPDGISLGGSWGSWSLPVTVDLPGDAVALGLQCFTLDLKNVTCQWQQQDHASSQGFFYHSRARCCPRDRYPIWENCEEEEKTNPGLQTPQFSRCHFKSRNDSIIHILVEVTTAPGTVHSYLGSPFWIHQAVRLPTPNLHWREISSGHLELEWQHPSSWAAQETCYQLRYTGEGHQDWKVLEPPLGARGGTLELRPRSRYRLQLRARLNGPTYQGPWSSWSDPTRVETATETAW
Method: A variety of methods can be used to evaluate IC50 values. For example, an equilibrium binding ELISA assay, using either MBP-TPO or lacI-peptide tracer, was used to determine whether the peptides inhibit the binding of TPO to the extracellular domain of the TPO receptor. Typically, the IC50 value were determined using the free peptide. The IC50 value can be determined using the free peptide, which optionally can be C-terminally amidated, or can be prepared as an ester or other carboxy amide.
Binding affinities of chemically synthesized peptides for TPO-R were measured in a competition binding assay. The wells of a microtiter plate were coated with 1 mg streptavidin, blocked with PBS/1% BSA, followed by 50 ng of biotinylated anti-receptor immobilizing antibody (Ab179). The wells were then treated with a 1:10 dilution of soluble TPO-R harvest. Various concentrations of peptide or peptide mimetic were mixed with a constant amount of a truncated form of TPO consisting of residues 1-156 fused to the C-terminus of maltose binding protein (MBP-TPO156). The peptide MBP-TPO156 mixtures were added to the TPO-R coated wells, incubated for 2 hours at 4° C. and then washed with PBS. The amount of MBP-TPO156 that was bound at equilibrium was measured by adding a rabbit anti-sera directed against MBP, followed by alkaline phosphatase conjugated goat anti-rabbit IgG. The amount of alkaline phosphatase in each well was then determined using standard methods.
The assay is conducted over a range of peptide concentrations and the results are graphed such that the y axis represents the amount of bound MBP-TPO156 and the x axis represents the concentration of peptide or peptide mimetic.

[2] = Table 4, cyclized compounds, read-out: EC50 (nM) Proliferation
[3] = Table 4, cyclized compounds, microphysiometer, read-out: EC50 (nM) Microonys

SMILES	EC50 [1, 2]	EC50 (TPO receptor; [3])	IC50 (TPO-R; Table 4, cyclized compounds)	other results
CC[C@H](C)[C@@H]1NC(=O)[C@H](Cc2c[nH]c3ccccc23)NC(=O)[C@H](CCC(=O)O)NC(=O)[C@H](CCCNC(=N)N)NC(=O)[C@H](CC(C)C)NC(=O)[C@H]([C@@H](C)O)NC(=O)[C@@H]2CCCN2C(=O)CNC(=O)[C@H](CC(=O)O)NC(=O)[C@H](C)NC(=O)C(c2ccccc2)SC[C@@H](C(N)=O)NC(=O)[C@H](Cc2ccccc2)NC(=O)[C@H](CO)NC1=O (stereo partly drawn) (HELM PEPTIDE1{A.D.G.P.T.L.R.E.W.I.S.F.C.[am]}|CHEM1{[O=C(C(c1ccccc1)[*:2])[*:1]]}$PEPTIDE1,CHEM1,1:R1-1:R1|PEPTIDE1,CHEM1,13:R3-1:R2$$$V2.0)	< 500 nM	< 200000 nM	≤ 500 nM	
CC[C@H](C)[C@@H]1NC(=O)[C@H](Cc2c[nH]c3ccccc23)NC(=O)[C@H](CCC(=O)O)NC(=O)[C@H](CCCNC(=N)N)NC(=O)[C@H](CC(C)C)NC(=O)[C@H]([C@@H](C)O)NC(=O)[C@@H]2CCCN2C(=O)CNC(=O)[C@H](CC(=O)O)NC(=O)[C@H](C)NC(=O)CC[C@@H](C(N)=O)NC(=O)[C@H](Cc2ccccc2)NC(=O)[C@H](CO)NC1=O (HELM PEPTIDE1{A.D.G.P.T.L.R.E.W.I.S.F.E.[am]}$PEPTIDE1,PEPTIDE1,1:R1-13:R3$$$V2.0)	< 200000 nM	< 200000 nM	≤ 200000 nM	
CC[C@H](C)[C@@H]1NC(=O)[C@H](Cc2c[nH]c3ccccc23)NC(=O)[C@H](CCC(=O)O)NC(=O)[C@H](CCCNC(=N)N)NC(=O)[C@H](CC(C)C)NC(=O)[C@H]([C@@H](C)O)NC(=O)[C@@H]2CCCN2C(=O)CNC(=O)[C@H](CC(=O)O)NC(=O)[C@H](C)NC(=O)[C@@H](N)C(C)(C)SSC[C@@H](C(N)=O)NC(=O)[C@H](Cc2ccccc2)NC(=O)[C@H](CO)NC1=O (HELM PEPTIDE1{[Pen].A.D.G.P.T.L.R.E.W.I.S.F.C.[am]}$PEPTIDE1,PEPTIDE1,1:R3-14:R3$$$V2.0)	< 500 nM	< 500 nM	≤ 500 nM	
CC[C@H](C)[C@@H]1NC(=O)[C@H](Cc2c[nH]c3ccccc23)NC(=O)[C@H](CCC(=O)O)NC(=O)[C@H](CCCNC(=N)N)NC(=O)[C@H](CC(C)C)NC(=O)[C@H]([C@@H](C)O)NC(=O)[C@@H]2CCCN2C(=O)CNC(=O)[C@H](CC(=O)O)NC(=O)[C@H](C)NC(=O)C[S+]([O-])C[C@@H](C(N)=O)NC(=O)[C@H](Cc2ccccc2)NC(=O)[C@H](CO)NC1=O (stereo partly drawn) (HELM PEPTIDE1{A.D.G.P.T.L.R.E.W.I.S.F.[O=C([C@H](C[S+]([O-])CC(=O)[*:3])N[*:1])[*:2]].[am]}$PEPTIDE1,PEPTIDE1,1:R1-13:R3$$$V2.0)	< 200000 nM	< 200000 nM	≤ 200000 nM	
CC[C@H](C)[C@@H]1NC(=O)[C@H](Cc2c[nH]c3ccccc23)NC(=O)[C@H](CCC(=O)O)NC(=O)[C@H](CCCNC(=N)N)NC(=O)[C@H](CC(C)C)NC(=O)[C@H]([C@@H](C)O)NC(=O)[C@@H]2CCCN2C(=O)CNC(=O)[C@H](CC(=O)O)NC(=O)[C@H](C)NC(=O)[C@@H](N)CSSC[C@@H](C(N)=O)NC(=O)[C@H](CC2CCCCC2)NC(=O)[C@H](CO)NC1=O [F-CHA] (HELM PEPTIDE1{C.A.D.G.P.T.L.R.E.W.I.S.[Cha].C.[am]}$PEPTIDE1,PEPTIDE1,1:R3-14:R3$$$V2.0; N-terminus and C-terminus assumed)				EC50 ([1]; Table 5, substitutions in cyclized compound, read-out: EC50 (nM) Cell Prolif.): < 500 nM; EC50 (TPO receptor; Table 5, value in parentheses, read-out: EC50 (nM), microphysiometer results given in parentheses): < 500 nM; IC50 (TPO-R; Table 5): ≤ 500 nM
CC[C@H](C)[C@H](NC(=O)[C@H](Cc1c[nH]c2ccccc12)NC(=O)[C@H](CCC(=O)O)NC(=O)[C@H](CCCNC(=N)N)NC(=O)[C@H](CC(C)C)NC(=O)[C@@H](NC(=O)[C@@H]1CCCN1C(=O)CNC(=O)[C@H](CC(=O)O)NC(=O)[C@H](C)NC(=O)[C@@H](N)CSSC[C@H](N)C(=O)N[C@@H](C)C(=O)N[C@@H](CC(=O)O)C(=O)NCC(=O)N1CCC[C@H]1C(=O)N[C@H](C(=O)N[C@@H](CC(C)C)C(=O)N[C@@H](CCCNC(=N)N)C(=O)N[C@@H](CCC(=O)O)C(=O)N[C@@H](Cc1c[nH]c2ccccc12)C(=O)N[C@H](C(=O)N[C@@H](CO)C(=O)N[C@@H](Cc1ccccc1)C(N)=O)[C@@H](C)CC)[C@@H](C)O)[C@@H](C)O)C(=O)N[C@@H](CO)C(=O)N[C@@H](Cc1ccccc1)C(N)=O (HELM PEPTIDE1{C.A.D.G.P.T.L.R.E.W.I.S.F.[am]}|PEPTIDE2{C.A.D.G.P.T.L.R.E.W.I.S.F.[am]}$PEPTIDE1,PEPTIDE2,1:R3-1:R3$$$V2.0)				EC50 ([1]; Table 7, dimer compounds, read-out: EC50 (nM) Prolif.): < 500 nM; EC50 (TPO receptor; Table 7, dimer compounds, read-out: EC50 (nM) Microonys.): < 500 nM; IC50 (TPO-R; Table 7, dimer compounds): ≤ 500 nM
CC[C@H](C)[C@@H]1NC(=O)[C@H](Cc2c[nH]c3ccccc23)NC(=O)[C@H](CCC(=O)O)NC(=O)[C@H](CCCNC(=N)N)NC(=O)[C@H](CC(C)C)NC(=O)[C@H]([C@@H](C)O)NC(=O)[C@@H]2CCCN2C(=O)CNC(=O)[C@H](CC(=O)O)NC(=O)[C@H](C)NC(=O)[C@H](N)C(C)(C)SSC[C@H](C(N)=O)NC(=O)[C@H](Cc2ccccc2)NC(=O)[C@H](CO)NC1=O (HELM PEPTIDE1{[CC(C)(S[*:3])[C@@H](N)C(=O)[*:2]].A.D.G.P.T.L.R.E.W.I.S.F.[dC].[am]}$PEPTIDE1,PEPTIDE1,1:R3-14:R3$$$V2.0)	< 200000 nM	< 200000 nM	≤ 500 nM	
CC[C@H](C)[C@@H]1NC(=O)[C@H](Cc2c[nH]c3ccccc23)NC(=O)[C@H](CCC(=O)O)NC(=O)[C@H](CCCNC(=N)N)NC(=O)[C@H](CC(C)C)NC(=O)[C@H]([C@@H](C)O)NC(=O)[C@@H]2CCCN2C(=O)CNC(=O)[C@H](CC(=O)O)NC(=O)[C@H](C)NC(=O)CSCC[C@@H](C(N)=O)NC(=O)[C@H](Cc2ccccc2)NC(=O)[C@H](CO)NC1=O (HELM PEPTIDE1{[O=C(C[*:3])[*:2]].A.D.G.P.T.L.R.E.W.I.S.F.[O=C([C@H](CCS[*:3])N[*:1])[*:2]].[am]}$PEPTIDE1,PEPTIDE1,1:R3-14:R3$$$V2.0)	< 200000 nM	< 200000 nM	≤ 500 nM	
CC[C@H](C)[C@@H]1NC(=O)[C@H](Cc2c[nH]c3ccccc23)NC(=O)[C@H](CCC(=O)O)NC(=O)[C@H](CCCNC(=N)N)NC(=O)[C@H](CC(C)C)NC(=O)[C@H]([C@@H](C)O)NC(=O)[C@@H]2CCCN2C(=O)CNC(=O)[C@H](CC(=O)O)NC(=O)[C@H](C)NC(=O)[C@@H](N)CSSC[C@H](C(N)=O)NC(=O)[C@H](Cc2ccccc2)NC(=O)[C@H](CO)NC1=O (HELM PEPTIDE1{C.A.D.G.P.T.L.R.E.W.I.S.F.[dC].[am]}$PEPTIDE1,PEPTIDE1,1:R3-14:R3$$$V2.0)	< 200000 nM	< 200000 nM	≤ 500 nM	
